# Experimental data reported in ChEMBL document CHEMBL5038588 (J Med Chem, 2021).
# pIC50: −log10 of the molar value.
# Assays:
# BaF3 [1] = experiment: Inhibition of cell proliferation in mouse BaF3 cells expressing BCR-ABL T315I mutant assessed as cell viability at 100 uM measured after 48 hrs by trypan blue based assay (RVB=100%); type: functional; details: read-out: Activity
# KU812 cell line = experiment: Cytotoxicity against human KU812 cells assessed as inhibition of cell growth measured after 72 hrs by MTT assay; type: functional, cell-based; details: KU812, 72 h
# U-937 = experiment: Cytotoxicity against human U-937 cells assessed as inhibition of cell growth measured after 72 hrs by MTT assay; type: functional, cell-based; details: U-937, 72 h
# Jurkat = experiment: Cytotoxicity against human Jurkat cells assessed as inhibition of cell growth measured after 72 hrs by MTT assay; type: functional, cell-based
# BaF3 [2] = experiment: cells; details: Mus musculus, BaF3, 72 h
# Description: Cytotoxicity against mouse BAF3 cells expressing native BCR-ABL assessed as inhibition of cell growth measured after 72 hrs by MTT assay
# BaF3 [3] = experiment: cells; details: Mus musculus, BaF3, 48 h
# Description: Cytotoxicity against mouse BAF3 cells expressing BCR-ABL T315I mutant assessed as inhibition of cell growth measured after 48 hrs by trypan blue assay
# K562 = experiment: cells; details: Homo sapiens, K562, 72 h
# Description: Cytotoxicity against human K562 cells assessed as cell growth inhibition measured after 72 hrs by MTT assay
# [4] = Toxicity in BALB/c nude mouse xenografted with BaF3 cells expressing BCR-ABL T315I mutant assessed as effect on body weight at 2.5 to 10 mg/kg, po administered once daily for 15 days; type: organism-based; details: in vivo, 360 h, dose 2.5-10 mg/kg, time 15 day
smiles,measurement,setting,value
Cc1ccc(-c2nc3ccc(CN4CCN(C)CC4)cc3[nH]2)cc1C#Cc1cnc2cccnn12,viability at 100 µM,BaF3 [1],84.5%
CN1CCN(Cc2ccc3nc(-c4ccc(Cl)c(C#Cc5ccc(NC6CC6)nn5)c4)[nH]c3c2)CC1,viability at 100 µM,BaF3 [1],74.8%
CN1CCN(Cc2ccc3nc(-c4ccc(Cl)c(C#Cc5cnc6cccnn56)c4)[nH]c3c2)CC1,viability at 100 µM,BaF3 [1],94.5%
CN1CCN(Cc2ccc3nc(-c4ccc(Cl)c(C#Cc5ccc(NC6CCC6)nn5)c4)[nH]c3c2)CC1,viability at 100 µM,BaF3 [1],97.4%
Cc1ccc(C(=O)Nc2ccc3c(c2)C(F)(F)C[C@H]3N2CCN(C)CC2)cc1C#Cc1cnc(NC2CC2)nc1,pIC50,KU812 cell line,8.28
same,pIC50,U-937,6.33
same,pIC50,Jurkat,6.40
same,pIC50,BaF3 [2],7.20
same,pIC50,BaF3 [3],< 7.00
same,pIC50,K562,7.98
CN1CCN(Cc2ccc(NC(=O)N3CCCC(C#Cc4cnc5cccnn45)C3)cc2C(F)(F)F)CC1 (stereo unspecified),viability at 100 µM,BaF3 [1],84.3%
Cc1ccc(C(=O)Nc2ccc3c(c2)C(F)(F)C[C@@H]3N2CCN(C)CC2)cc1C#Cc1cnc(NC2CC2)nc1,pIC50,KU812 cell line,9.70
same,pIC50,U-937,6.78
same,pIC50,Jurkat,6.55
same,pIC50,BaF3 [2],8.46
same,pIC50,BaF3 [3],7.91
same,pIC50,K562,9.22
CC(C)Nc1ccc(C#Cc2cc(-c3nc4ccc(CN5CCN(C)CC5)cc4[nH]3)ccc2Cl)nn1,viability at 100 µM,BaF3 [1],100%
Cc1ccc(C(=O)Nc2ccc3c(c2)C(F)(F)C[C@@H]3N2CCN(C)CC2)cc1C#Cc1cnc2cccnn12.Cl,Activity,[4],Non-Toxic
Cc1ccc(-c2nc3ccc(CN4CCN(C)CC4)cc3[nH]2)cc1C#Cc1ccc(NC2CCC2)nn1,viability at 100 µM,BaF3 [1],110%
Cc1ccc(C(=O)Nc2ccc3c(c2)C(F)(F)C(N2CCN(C)CC2)C3)cc1C#Cc1cnc2cccnn12 (stereo unspecified),viability at 100 µM,BaF3 [1],91.5%
